Patent publication US20040057943A1, “Probiotic strains, a process for the selection of them, compositions thereof, and their use” (priority 2002, published 2004)

System: Salmonella typhmurium and Escherichia coli
Test: Production of antimicrobial metabolites, agar well diffusion assay
Format: cell-based
Settings: pH 4.5; data not shown
Method: The probiotic strains of this invention were assessed for their capability to produce antimicrobial metabolites using an agar well diffusion assay. MRS agar plates containing 10^6 cfu/ml of different pathogenic bacteria strain (Salmonella typhmurium and Escherichia coli) were prepared. Wells, with a diameter of 5 mm, where then cut in the agar using a sterile cork-borer. Then, 50 μl of a 2 fold concentrate supernatant of each probiotic strain culture were added to the wells and allowed to diffuse into the agar during a 2 hours preincubation period at 4° C., followed by aerobic incubation of the plates at 37° C. for 16-18 hours. The antimicrobial activity of each supernatant was considered high if the diameter of the inhibition hallo for both pathogenic bacteria strains was >12, moderate between 8 and 12, and slight <8 (FIG. 11)
Moreover, it was also tested if the antimicrobial activity of the supernatants was due to a antimicrobial substance or to the production of metabolic acids. […] It was also tested the antimicrobial capabilities of supernatants obtained from bacterial cultures using glucose or lactose as a carbohydrate source.

**Q.** With `CC(=O)O` [acetic] as the molecule, how does the “Inhibitory effect of a dilution of metabolic acid on growth of Salmonella or E. coli” value read?
**A.** None of these situations inhibited the growth

**Q.** How did the “Inhibitory effect of a dilution of metabolic acid on growth of Salmonella or E. coli” value turn out when `CCCC(=O)O` [butyric, butyric acid] was run?
**A.** None of these situations inhibited the growth
